Reference: patent publication US11999716B2, “WDR5 inhibitors and modulators” (priority 2018, dated 2024)

Tested on: MV4:11 human cancer cell lines
Experiment: Cellular viability / anti-proliferative activity, CellTiter-Glo, 5 day protocol
Type: cell-based
Conditions: Homo sapiens, MV4-11, 120 h, MV4:11 cells; 5 day incubation; CellTiter-Glo; mean of minimum two replicates; read-out: GI50 on cellular proliferation of MV4:11 human cancer cell lines
How it was run: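 Cells seeded at 200 per well (7200 cells/mL) with compound in 2-fold serial dilutions from 30 μM top (22 points), 0.3% DMSO final. Viability read by CellTiter-Glo luminescence after 5 days; GI50 from sigmoidal dose-response fit, mean of at least two replicates.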

| GI50 | Compound |
| --- | --- |
| 252 nM | Cc1cnc(CN2CCc3c(cc(Cn4ccnc4C)cc3-c3cn(C)nc3C(F)(F)F)C2=O)o1 [Example 194, 7-((2-Methyl-1H-imidazol-1-yl)methyl)-5-(1-methyl-3-(trifluoromethyl)-1H-pyrazol-4-yl)-2-((5-methyloxazol-2-yl)methyl)-3,4-dihydroisoquinolin-1(2H)-one] |
| 217 nM | Cc1cnc(CN2CCc3c(cc(Cn4ccnc4C)cc3-c3cn(C)nc3C(F)(F)F)C2=O)s1 [Example 195, 7-((2-Methyl-1H-imidazol-1-yl)methyl)-5-(1-methyl-3-(trifluoromethyl)-1H-pyrazol-4-yl)-2-((5-methylthiazol-2-yl)methyl)-3,4-dihydroisoquinolin-1(2H)-one] |
| 936 nM | COc1ccnc([C@H](C)N2CCc3c(cc(Cn4ccnc4C)cc3-c3cnccc3C)C2=O)c1 [Example 196, (S)-2-(1-(4-Methoxypyridin-2-yl)ethyl)-7-((2-methyl-1H-imidazol-1-yl)methyl)-5-(4-methylpyridin-3-yl)-3,4-dihydroisoquinolin-1(2H)-one] |
| < 50 nM | Cc1cncc([C@@H](C)N2CCc3c(cc(Cn4ccnc4C)cc3-c3cn(C)nc3C(F)(F)F)C2=O)c1 [Example 197, (R)-7-((2-Methyl-1H-imidazol-1-yl)methyl)-5-(1-methyl-3-(trifluoromethyl)-1H-pyrazol-4-yl)-2-(1-(5-methylpyridin-3-yl)ethyl)-3,4-dihydroisoquinolin-1(2H)-one] |
| 62 nM | CC[C@H](c1cncc(C)c1)N1CCc2c(cc(Cn3ccnc3C)cc2-c2cn(C)nc2C(F)(F)F)C1=O [Example 198, (R)-7-((2-Methyl-1H-imidazol-1-yl)methyl)-5-(1-methyl-3-(trifluoromethyl)-1H-pyrazol-4-yl)-2-(1-(5-methylpyridin-3-yl)propyl)-3,4-dihydroisoquinolin-1(2H)-one] |
| < 50 nM | CC[C@@H](c1cncc(C)c1)N1CCc2c(cc(Cn3ccnc3C)cc2-c2cn(C)nc2C(F)(F)F)C1=O [Example 199, (S)-7-((2-Methyl-1H-imidazol-1-yl)methyl)-5-(1-methyl-3-(trifluoromethyl)-1H-pyrazol-4-yl)-2-(1-(5-methylpyridin-3-yl)propyl)-3,4-dihydroisoquinolin-1(2H)-one] |
| < 50 nM | Cc1cncc([C@H](C)N2CCc3c(cc(Cn4ccnc4C)cc3-c3cn(C)nc3C(F)(F)F)C2=O)c1 [Example 200, (S)-7-((2-Methyl-1H-imidazol-1-yl)methyl)-5-(1-methyl-3-(trifluoromethyl)-1H-pyrazol-4-yl)-2-(1-(5-methylpyridin-3-yl)ethyl)-3,4-dihydroisoquinolin-1(2H)-one] |
| 230 nM | COc1ccnc([C@H](C)N2CCc3c(cc(Cn4ccnc4C)cc3-c3cccnc3C)C2=O)c1 [Example 202, (S)-2-(1-(4-Methoxypyridin-2-yl)ethyl)-7-((2-methyl-1H-imidazol-1-yl)methyl)-5-(2-methylpyridin-3-yl)-3,4-dihydroisoquinolin-1(2H)-one] |
| 52 nM | COc1ccnc([C@H](C2CC2)N2CCc3c(cc(Cn4ccnc4C)cc3-c3cn(C)nc3C)C2=O)c1 [Example 203, (S)-2-(Cyclopropyl(4-methoxypyridin-2-yl)methyl)-5-(1,3-dimethyl-1H-pyrazol-4-yl)-7-((2-methyl-1H-imidazol-1-yl)methyl)-3,4-dihydroisoquinolin-1(2H)-one] |
| 58 nM | Cc1nccn1Cc1cc2c(c(-c3cn(C)nc3C(F)(F)F)c1)CCN(Cc1cc(Br)c3ccccc3n1)C2=O [Example 204, 2-((4-Bromoquinolin-2-yl)methyl)-7-((2-methyl-1H-imidazol-1-yl)methyl)-5-(1-methyl-3-(trifluoromethyl)-1H-pyrazol-4-yl)-3,4-dihydroisoquinolin-1(2H)-one] |
| < 50 nM | Cc1nccn1Cc1cc2c(c(-c3cn(C)nc3C(F)(F)F)c1)CCN(Cc1cc(Br)ccn1)C2=O [Example 205, 2-((4-Bromopyridin-2-yl)methyl)-7-((2-methyl-1H-imidazol-1-yl)methyl)-5-(1-methyl-3-(trifluoromethyl)-1H-pyrazol-4-yl)-3,4-dihydroisoquinolin-1(2H)-one] |
| < 50 nM | CCn1cc(-c2cc(Cn3ccnc3C)cc3c2CCN([C@H](c2cc(OC)ccn2)C2CC2)C3=O)c(C(F)(F)F)n1 [Example 206, (S)-2-(cyclopropyl(4-methoxypyridin-2-yl)methyl)-5-(1-ethyl-3-(trifluoromethyl)-1H-pyrazol-4-yl)-7-((2-methyl-1H-imidazol-1-yl)methyl)-3,4-dihydroisoquinolin-1(2H)-one] |
| 75 nM | Cc1nccn1Cc1cc2c(c(-c3cn(C)nc3C(F)(F)F)c1)CCN(Cc1cccc(Br)c1)C2=O [Example 207, 2-(3-Bromobenzyl)-7-((2-methyl-1H-imidazol-1-yl)methyl)-5-(1-methyl-3-(trifluoromethyl)-1H-pyrazol-4-yl)-3,4-dihydroisoquinolin-1(2H)-one] |
| 251 nM | Cc1cc(CN2CCc3c(cc(Cn4ccnc4C)cc3-c3cn(C)nc3C(F)(F)F)C2=O)ccn1 [Example 208, 7-((2-Methyl-1H-imidazol-1-yl)methyl)-5-(1-methyl-3-(trifluoromethyl)-1H-pyrazol-4-yl)-2-((2-methylpyridin-4-yl)methyl)-3,4-dihydroisoquinolin-1(2H)-one] |
| 85 nM | Cc1cccc(CN2CCc3c(cc(Cn4ccnc4C)cc3-c3cn(C)nc3C(F)(F)F)C2=O)c1 [Example 209, 7-((2-Methyl-1H-imidazol-1-yl)methyl)-5-(1-methyl-3-(trifluoromethyl)-1H-pyrazol-4-yl)-2-(3-methylbenzyl)-3,4-dihydroisoquinolin-1(2H)-one] |
| 148 nM | CCc1cccc(CN2CCc3c(cc(Cn4ccnc4C)cc3-c3cn(C)nc3C(F)(F)F)C2=O)c1 [Example 210, 2-(3-Ethylbenzyl)-7-((2-methyl-1H-imidazol-1-yl)methyl)-5-(1-methyl-3-(trifluoromethyl)-1H-pyrazol-4-yl)-3,4-dihydroisoquinolin-1(2H)-one] |
| 84 nM | COc1ccnc([C@H](C2CC2)N2CCc3c(cc(Cn4ccnc4)cc3-c3cn(C)nc3C)C2=O)c1 [Example 211, (S)-7-((1H-Imidazol-1-yl)methyl)-2-(cyclopropyl(4-methoxypyridin-2-yl)methyl)-5-(1,3-dimethyl-1H-pyrazol-4-yl)-3,4-dihydroisoquinolin-1(2H)-one] |
| < 50 nM | CCn1cc(-c2cc(Cn3ccnc3)cc3c2CCN([C@H](c2cc(OC)ccn2)C2CC2)C3=O)c(C(F)(F)F)n1 [Example 212, (S)-7-((1H-Imidazol-1-yl)methyl)-2-(cyclopropyl(4-methoxypyridin-2-yl)methyl)-5-(1-ethyl-3-(trifluoromethyl)-1H-pyrazol-4-yl)-3,4-dihydroisoquinolin-1(2H)-one] |
| < 50 nM | Cc1cc(CN2CCc3c(cc(Cn4ccnc4C)cc3-c3cn(C)nc3C(F)(F)F)C2=O)cnc1Cl [Example 213, 2-((6-Chloro-5-methylpyridin-3-yl)methyl)-7-((2-methyl-1H-imidazol-1-yl)methyl)-5-(1-methyl-3-(trifluoromethyl)-1H-pyrazol-4-yl)-3,4-dihydroisoquinolin-1(2H)-one] |
| 168 nM | CCc1ccc(OCC(=O)NCc2cccnc2)c(CN2CCc3c(cc(Cn4ccnc4C)cc3-c3cn(C)nc3C(F)(F)F)C2=O)c1 [Example 215, 2-(4-Ethyl-2-((7-((2-methyl-1H-imidazol-1-yl)methyl)-5-(1-methyl-3-(trifluoromethyl)-1H-pyrazol-4-yl)-1-oxo-3,4-dihydroisoquinolin-2(19)-yl)methyl)phenoxy)-N-(pyridin-3-ylmethyl)acetamide] |
| 56 nM | Cc1nccn1Cc1cc2c(c(-c3cn(C)nc3C(F)(F)F)c1)CCN(Cc1cc(Br)cc3c1OCC3)C2=O [Example 216, 2-((5-Bromo-2,3-dihydrobenzofuran-7-yl)methyl)-7-((2-methyl-1H-imidazol-1-yl)methyl)-5-(1-methyl-3-(trifluoromethyl)-1H-pyrazol-4-yl)-3,4-dihydroisoquinolin-1(2H)-one] |
| 149 nM | CCc1ccc(OC)c(CN2CCc3c(cc(Cn4ccnc4C)cc3-c3cn(C)nc3C(F)(F)F)C2=O)c1 [Example 217, 2-(5-Ethyl-2-methoxybenzyl)-7-((2-methyl-1H-imidazol-1-yl)methyl)-5-(1-methyl-3-(trifluoromethyl)-1H-pyrazol-4-yl)-3,4-dihydroisoquinolin-1(2H)-one] |
| < 50 nM | Cc1cc2c(c(CN3CCc4c(cc(Cn5ccnc5C)cc4-c4cn(C)nc4C(F)(F)F)C3=O)c1)OCC2 [Example 218, 7-((2-Methyl-1H-imidazol-1-yl)methyl)-2-((5-methyl-2,3-dihydrobenzofuran-7-yl)methyl)-5-(1-methyl-3-(trifluoromethyl)-1H-pyrazol-4-yl)-3,4-dihydroisoquinolin-1(2H)-one] |
| 1940 nM | Cc1ccc2[nH]ncc2c1-c1cc(CN2CCc3c(cc(Cn4ccnc4C)cc3-c3cn(C)nc3C(F)(F)F)C2=O)cc(OC(F)(F)F)c1 [Example 220, 7-((2-Methyl-1H-imidazol-1-yl)methyl)-2-(3-(5-methyl-1H-indazol-4-yl)-5-(trifluoromethoxy)benzyl)-5-(1-methyl-3-(trifluoromethyl)-1H-pyrazol-4-yl)-3,4-dihydroisoquinolin-1(2H)-one] |
| 421 nM | Cc1nccn1Cc1cc2c(c(-c3cn(C)nc3C(F)(F)F)c1)CCN(Cc1cccc(C(F)(F)F)c1)C2=O [Example 221, 7-((2-Methyl-1H-imidazol-1-yl)methyl)-5-(1-methyl-3-(trifluoromethyl)-1H-pyrazol-4-yl)-2-(3-(trifluoromethyl)benzyl)-3,4-dihydroisoquinolin-1(2H)-one] |

Same assay, conditions: MV4:11 cells; 5 day incubation; CellTiter-Glo; mean of minimum two replicates; read-out: GI50 on cellular proliferation of MV4:11 human cancer cell lines

| GI50 | Compound |
| --- | --- |
| < 50 nM | Cc1cc([C@H](C)N2CCc3c(cc(Cn4ccnc4)cc3-c3cn(C)nc3C(F)(F)F)C2=O)ncc1F [Example 201, (S)-7-((1H-imidazol-1-yl)methyl)-2-(1-(5-fluoro-4-methylpyridin-2-yl)ethyl)-5-(1-methyl-3-(trifluoromethyl)-1H-pyrazol-4-yl)-3,4-dihydroisoquinolin-1(2H)-one] |
